According to article PMC4188576 (PLoS ONE, 2014):

Columns and labels:
Pdr5p = molecular target: T1, Pdr5p (Saccharomyces cerevisiae, UniProt P33302); assay: ATPase (Pi release) assay on Pdr5p-overexpressing plasma membranes, oligomycin-sensitive activity; type: biochemical
T1 construct: gene PDR5; plasma membranes containing the overexpressed Pdr5p (strain AD124567)

Na,K-ATPase α1 isoform [1] = molecular target: T2, Na,K-ATPase α1 isoform (Mus musculus, UniProt Q8VDN2); assay: Na,K-ATPase activity of mouse kidney membranes, dose-response; type: biochemical
T2 construct: gene Atp1a1; native mouse kidney membrane preparation, primarily α1 isoform

Na,K-ATPase α1 isoform [2] = molecular target: T3, Na,K-ATPase α1 isoform (Homo sapiens, UniProt P05023); assay: competition of 3H-ouabain radioligand binding on HeLa cells
T3 construct: gene ATP1A1; endogenous enzyme on HeLa cell monolayers

T1 sequence (P33302 whole entry): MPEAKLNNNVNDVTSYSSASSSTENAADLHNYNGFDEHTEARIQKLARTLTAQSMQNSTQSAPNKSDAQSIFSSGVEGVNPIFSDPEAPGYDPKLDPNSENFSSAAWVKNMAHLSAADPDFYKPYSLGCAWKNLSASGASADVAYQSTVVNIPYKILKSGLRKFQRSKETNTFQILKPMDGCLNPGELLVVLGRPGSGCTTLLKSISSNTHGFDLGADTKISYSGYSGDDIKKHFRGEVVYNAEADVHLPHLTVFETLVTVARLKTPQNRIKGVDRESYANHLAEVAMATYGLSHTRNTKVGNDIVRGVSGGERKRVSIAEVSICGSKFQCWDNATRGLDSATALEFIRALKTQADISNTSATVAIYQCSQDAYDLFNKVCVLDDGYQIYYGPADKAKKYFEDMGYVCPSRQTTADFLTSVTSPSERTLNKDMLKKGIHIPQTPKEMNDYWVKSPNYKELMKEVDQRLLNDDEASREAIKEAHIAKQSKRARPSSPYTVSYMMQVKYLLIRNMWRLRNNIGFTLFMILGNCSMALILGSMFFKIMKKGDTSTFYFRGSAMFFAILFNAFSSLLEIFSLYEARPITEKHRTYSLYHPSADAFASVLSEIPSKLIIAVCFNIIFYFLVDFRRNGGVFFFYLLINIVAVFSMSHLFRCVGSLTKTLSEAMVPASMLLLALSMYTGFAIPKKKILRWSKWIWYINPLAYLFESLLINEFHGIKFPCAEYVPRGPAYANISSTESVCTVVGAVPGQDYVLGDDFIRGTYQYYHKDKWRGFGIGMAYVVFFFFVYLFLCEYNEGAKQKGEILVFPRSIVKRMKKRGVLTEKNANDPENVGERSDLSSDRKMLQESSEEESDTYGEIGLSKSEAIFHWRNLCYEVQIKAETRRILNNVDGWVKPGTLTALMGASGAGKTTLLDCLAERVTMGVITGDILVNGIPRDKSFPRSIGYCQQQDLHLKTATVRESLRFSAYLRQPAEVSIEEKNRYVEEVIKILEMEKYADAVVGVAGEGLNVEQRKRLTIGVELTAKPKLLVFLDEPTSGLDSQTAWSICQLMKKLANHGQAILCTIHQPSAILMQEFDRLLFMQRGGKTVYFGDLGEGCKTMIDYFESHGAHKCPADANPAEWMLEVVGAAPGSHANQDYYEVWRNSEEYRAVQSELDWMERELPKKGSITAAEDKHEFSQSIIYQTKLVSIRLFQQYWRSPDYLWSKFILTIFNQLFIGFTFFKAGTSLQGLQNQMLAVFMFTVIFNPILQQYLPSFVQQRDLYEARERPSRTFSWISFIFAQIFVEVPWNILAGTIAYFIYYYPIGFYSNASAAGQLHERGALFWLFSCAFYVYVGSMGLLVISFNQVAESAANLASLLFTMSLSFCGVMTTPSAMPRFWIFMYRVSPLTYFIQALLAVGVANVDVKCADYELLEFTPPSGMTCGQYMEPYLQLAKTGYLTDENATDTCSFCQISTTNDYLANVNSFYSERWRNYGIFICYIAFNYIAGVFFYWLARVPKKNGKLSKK

C[C@H]1O[C@@H](O[C@H]2[C@@H](O)C[C@H](O[C@H]3[C@@H](O)C[C@H](O[C@H]4CC[C@@]5(C)[C@H](CC[C@@H]6[C@@H]5C[C@@H](O)[C@]5(C)[C@@H](C7=CC(=O)O/C7=C\c7ccccc7)CC[C@]65O)C4)O[C@@H]3C)O[C@@H]2C)C[C@H](O)[C@@H]1O [21-BD, 21-benzylidene digoxin]
IC50 (Pdr5p): 1250 ± 360 nM
Na,K-ATPase activity of mouse kidney membranes, dose-response (Na,K-ATPase α1 isoform [1]): Similarly, 21-BD inhibited the mouse kidney Na,K-ATPase with similar kinetics
competition of 3H-ouabain radioligand binding on HeLa cells (Na,K-ATPase α1 isoform [2]): 21-BD significantly competed with ouabain binding at concentrations in the µM range
